This is an account of results in patent US5354738A, “Platelet aggregation inhibitors” (G. D. Searle & Co., priority 1992, dated 1994).

The test system of the assay is Dog PRP. Briefly: In-Vitro Platelet Aggregation in PRP (ADP-induced, dog platelet-rich plasma). It counts as cell-based. Conditions: Canis lupus familiaris, 1 minute preincubation at 37° C., IC50 by linear regression of dose response curve. The protocol:
In-Vitro Platelet Aggregation in PRP
Healthy male or female dogs were fasted for 8 hours prior to drawing blood; then 30 ml whole blood was collected using a butterfly needle and 30 cc plastic syringe with 3 ml of 0.129M buffered sodium citrate (3.8%). The syringe was rotated carefully as blood was drawn to mix the citrate. Platelet-rich plasma (PRP) was prepared by centrifugation at 975×g for 3.17 minutes at room temperature, allowing the centrifuge to coast to a stop without braking. The PRP was removed from the blood with a plastic pipette and placed in a plastic capped, 50 ml Corning conical sterile centrifuge tube which was held at room temperature. Platelet poor plasma (PPP) was prepared by centrifuging the remaining blood at 2000×g for 15 minutes at room temperature allowing the centrifuge to coast to a stop without braking. The PRP was adjusted with PPP to a count of 2-3×10^8 platelets per ml. 400 μl of the PRP preparation and 50 μl of the compound to be tested or saline were preincubated for 1 minute at 37° C. in a BioData aggregometer (BioData, Horsham, Pa.). 50 μl of adenosine 5'-diphosphate (ADP) (50 μm final concentration) was added to the cuvettes and the aggregation was monitored for 1 minute. All compounds are tested in duplicate. Results are calculated as follows: […]

In general, IC50 refers to the concentration that inhibits the measured activity by half. Consider `N=C(N)c1ccc(CCCCNC(=O)N[C@@H](CC(=O)O)C(=O)N[C@@H](Cc2ccccc2)C(=O)O)cc1` [Example 2, N-[N-[[[4-[4-(aminoiminomethyl)phenyl]butyl]amino]-carbonyl]-L-α-aspartyl]-L-phenylalanine], for which the midpoint of inhibition, the IC50, lay at 760 nM. The result for `N=C(N)c1ccc(CCCCNC(=O)N[C@@H](CC(=O)O)C(=O)N[C@@H](Cc2c[nH]c3ccccc23)C(=O)O)cc1` [Example 3, N-[N-[[[4-[4-(aminoiminomethyl)phenyl]butyl]amino]carbonyl]-L-α-spartyl]-L-tryptophane] reads 200 nM.
